From publication PMC7070731, “Cytotoxic Activity of Organotin(IV) Derivatives with Triazolopyrimidine Containing Exocyclic Oxygen Atoms” (Molecules, 2020)

Experiments:
[1] = system: HCT-116 (human colorectal carcinoma) cells; experiment: MTT cytotoxicity assay, HCT-116; format: cell-based; settings: for Influence on cell growth / viability, HCT-116: 24 h, 0.01–1 µM range; for IC50: 24 h treatment, read-out: IC50 (nM ± SD) HCT-116
Procedure: (§1) HTC116 (human colorectal carcinoma), HepG2 (human hepatocellular carcinoma), MCF-7 (human breast cancer), 16-HBE (human bronchial epithelium) and Caco-2 (human colorectal carcinoma) cell lines were purchased from American Type Culture Collection, Rockville, MD, USA. All cell lines were grown in RPMI medium supplemented with L-glutamine (2 mM), 10% fetal bovine serum (FBS), penicillin (100 U/mL), streptomycin (100 µg/mL) and gentamicin (5 μg/mL). Cells were maintained in log phase by seeding twice a week at a density of 3 × 10^8 cells/L in humidified 5% CO2 atmosphere, at 37 °C. In all experiments, after plating, cells were allowed to adhere overnight and then treated with the compounds or vehicle alone (control cells), whereas Caco-2 cells were treated 15 days after confluence, at which time the cells are differentiated in normal intestinal-like cells. No differences were found between cells treated with DMSO 0.1% and untreated cells in terms of cell number and viability.
(§2) Cytotoxic activity of the organotin compounds against human tumor cell lines (HCT-116, HepG2 and MCF-7) and human normal cells (16-HBE and intestinal-like differentiated Caco2 cells) was determined using the MTT colorimetric assay based on the reduction of 3-(4,5-dimethyl-2-thiazolyl)bromide-2,5-diphenyl-2H-tetrazolium (MTT) to purple formazan using mitochondrial dehydrogenases of living cells, as reported. This method is commonly used to illustrate inhibition of cellular proliferation. Monolayer cultures were treated for 24 h with various concentrations (0.01-1 µM) of the drugs. Cisplatin was used for comparison. Briefly, all cell lines were seeded at 1.0 × 10^4 cells/well in 96-well plates containing 200 μL RPMI. When appropriated, cells were washed with fresh medium and incubated with the compounds in RPMI. After incubation, cells were washed, and 50 μL FBS-free medium containing 5 mg/mL MTT was added. The medium was discarded after a 2 h incubation at 37 °C by centrifugation, and formazan blue formed in the cells was dissolved in DMSO. The absorbance, measured at 570 nm in a microplate reader (Bio-RAD, Hercules, CA, USA) of MTT formazan of control cells was taken as 100% of viability. The growth inhibition activity of compounds was estimated by comparison with the not-treated control. The values for the inhibitory concentration for 50% of the tested compounds (IC50) were calculated using a sigmoidal model using GraphPad Prism 5.02 from GraphPad Software (San Diego, CA, USA). Each experiment was repeated three times in triplicate to obtain the mean values.

[2] = system: HepG2 (human hepatocellular cancer) cells; experiment: MTT cytotoxicity assay, HepG2; format: cell-based; settings: for Influence on cell growth / viability, HepG2: 24 h, 0.01–1 µM range; for IC50: 24 h treatment, read-out: IC50 (nM ± SD) HepG2
Procedure: as §1, §2

[3] = system: MCF-7 (human breast cancer) cells; experiment: MTT cytotoxicity assay, MCF-7; format: cell-based; settings: for Influence on cell growth / viability, MCF-7: 24 h, 0.01–1 µM range; for IC50: 24 h treatment, read-out: IC50 (nM ± SD) MCF-7
Procedure: as §1, §2

[4] = system: intestinal normal-like differentiated Caco-2 cells; experiment: MTT viability assay, normal-like differentiated Caco-2 cells; format: cell-based, human; settings: 24 h; for Effect on cell survival, normal-like differentiated Caco-2 cells: MTT, reduction seen in the 1–10 μM range; for CC50: differentiated Caco-2, MTT, concentration lethal to 50% of the normal cells, read-out: Normal-Like Intestinal Cells LC50
Procedure: as §1
as §2, with “Monolayer cultures were treated for 24 h with various concentrations (0.01-1 µM) of the drugs.” left out
(§3) Formazan of control cells was taken as 100% viability and the 50% lethal concentrations of the synthesized complexes (LC50) were determined by plotting the graph of cell viability versus the concentrations. The selectivity index (SI) values were calculated for each compound by dividing the LC50 of normal differentiated Caco2 or 16-HBE cells by the IC50 of HCT-116 tumor cells. Each experiment was repeated three times in triplicate.

[5] = system: human bronchial epithelial cells (16-HBE); experiment: MTT viability assay, 16-HBE cells; format: cell-based; settings: 24 h; for CC50: concentration lethal to 50% of the normal cells, read-out: 16-HBE Cells LC50; for Effect on cell survival, 16-HBE cells: reduction seen in the 1–10 μM range
Procedure: as §1
as §2, with “Monolayer cultures were treated for 24 h with various concentrations (0.01-1 µM) of the drugs.” left out
as §3

HCT-116 cells [6] = experiment: Mitochondrial transmembrane potential, DiOC6 flow cytometry; format: cell-based, human; settings: 24 h, control 3.2%
Procedure: Mitochondrial transmembrane potentials (Δψm) were assessed using flow cytofluorometry, with the cationic lipophilic dye 3,3′-dihexyloxacarbocyanine iodide(3) (DiOC6) (Molecular Probes, Inc., Life Technologies Italia, Monza, Italy), which accumulates in the mitochondrial matrix. Changes in mitochondrial membrane potential are indicated by a reduction in the DiOC6-induced fluorescence intensity. After 24 h treatment, cells were incubated with DiOC6 at a 40 nmol/L final concentration, for 15 min at 37 °C. After centrifugation, cells were washed with phosphate buffer saline (PBS) and suspended in 500 μL PBS. Then, samples of 1.0 × 10^4 cells were subjected to FACS analysis.

HCT-116 cells [7] = experiment: Intracellular ROS, DCFH-DA flow cytometry; format: cell-based, human; settings: 24 h, control 1.9%
Procedure: ROS level was monitored by measuring fluorescence changes that resulted from intracellular oxidation of 2′,7′-dichlorofluorescin diacetate (DCFH-DA). DCFH-DA, at 10 μM final concentration, was added to the cell medium 30 min before the end of the treatment. The cells were collected using centrifugation for 5 min at 2000 rpm at 4 °C, washed, suspended in PBS and immediately subjected to FACS analysis. At least 1 × 10^4 cells were analyzed for each sample.

HCT-116 cells [8] = experiment: Cell cycle analysis, propidium iodide flow cytometry; format: cell-based, human; settings: HCT-116, 24 h of treatment
Procedure: Cell cycle stage was analyzed using flow cytometry. Aliquots of 1.0 × 10^6 cells were harvested using centrifugation, washed with PBS and incubated in the dark in a PBS solution containing Triton X100 (0.1%, v/v), 20 μg/mL propidium iodide (PI) and 200 µg/mL RNase, for 30 min, at room temperature. Then, samples were immediately subjected to FACS analysis. At least 1 × 10^4 events were analyzed for each sample.

p53 = experiment: Western blot, p53 level in HCT 116 cells; format: cell-based, human; settings: 24 h, immunoblotting
Procedure: (§4) After treatment with the compound, protein extracts were prepared and equal amounts of protein samples (80 μg/lane), subjected to SDS-PAGE, were transferred to nitrocellulose membrane as previously reported. The immunoblot was incubated overnight at 4 °C with blocking solution (5% skim milk), followed by incubation with anti-p21 (F-5, Cat No SC-6246 Santa Cruz Biotechnology) or anti-p53 (DO-1, Cat No SC-126, Santa Cruz Biotechnology) for 1 h at room temperature. Blots were washed two times with Tween 20/Tris-buffered saline (TTBS) and incubated with a 1:2000 dilution of horseradish peroxidase (HRP)-conjugated anti-IgG antibody (Dako Denmark, Glostrup, Denmark) for 1 h at room temperature. Blots were again washed five times with TTBS and then developed using enhanced chemiluminescence (Amersham Life Science, Arlington Heights, IL, USA.). Immunoreactions were also performed using β-actin antibody as loading controls.

p21^WAF1 = experiment: Western blot, p21WAF1 level in HCT 116 cells; format: cell-based, human; settings: 24 h, immunoblotting
Procedure: as §4

| Compound | Influence on cell growth / viability, HCT-116 [1] | IC50 [1] [nM] | Influence on cell growth / viability, HepG2 [2] | IC50 [2] [nM] | Influence on cell growth / viability, MCF-7 [3] | IC50 [3] [nM] | Effect on cell survival, normal-like differentiated Caco-2 cells [4] | CC50 [4] [nM] | CC50 [5] [nM] | Effect on cell survival, 16-HBE cells [5] | Cells with dissipated mitochondrial membrane potential (HCT-116 cells [6]; 0.1 μM) [%] | AY, ROS production (DCFH-DA fluorescent cells) (HCT-116 cells [7]; 0.1 μM) [%] | Effect on cell cycle distribution (HCT-116 cells [8]) | Effect on level of p53 (p53) | Effect on level of p21 (p21^WAF1) | Cells with dissipated mitochondrial membrane potential (HCT-116 cells [6]; 20 μM) [%] | AY, ROS production (DCFH-DA fluorescent cells) (HCT-116 cells [7]; 20 μM) [%] |
| --- | --- | --- | --- | --- | --- | --- | --- | --- | --- | --- | --- | --- | --- | --- | --- | --- | --- |
| Cc1cc([O][Sn]([CH3])([CH3])[CH3])n2ncnc2n1 [Compound 3, Me3Sn(mtpO)] | no influence on cell growth | > 1000 | no influence on cell growth | > 1000 | no influence on cell growth | > 1000 |  |  |  |  |  |  |  |  |  |  |  |
| CCC[CH2][Sn]([CH2]CCC)([CH2]CCC)[O]c1cc(C)nc2ncnn12 [Compound 4, n-Bu3Sn(mtpO)] |  | 34 ± 3 |  | 53 ± 6 |  | 118 ± 10 | reduction of the cell survival | 5000 ± 400 | 11000 ± 1000 | reduction of the cell survival | 28.5 | 27.3 | block of cell duplication in the G0/G1 phase | did not vary | did not vary |  |  |
| N.N.[Cl][Pt][Cl] [Cisplatin, reference compound] |  | 46000 |  | 65000 |  | 10000 |  |  |  |  |  |  |  |  |  | 17.4 | 23.5 |
| Ph3Sn(HtpO2) [Compound 6] |  | 60 ± 5 |  | 63 ± 5 |  | 102 ± 9 | did not affect the cell viability at any assayed concentration |  |  | did not affect the cell viability at any assayed concentration | 25.1 | 25.3 | cell cycle arrest in phase G2/M |  |  |  |  |
| [CH3][Sn]([CH3])([CH3])[O]c1ccn2ncnc2n1 [Compound 1, Me3Sn(5tpO)] | no influence on cell growth | > 1000 | no influence on cell growth | > 1000 | no influence on cell growth | > 1000 |  |  |  |  |  |  |  |  |  |  |  |
| CCC[CH2][Sn]([CH2]CCC)([CH2]CCC)[O]c1ccn2ncnc2n1 [Compound 2, n-Bu3Sn(5tpO)] |  | 70 ± 8 |  | 70 ± 6 |  | 233 ± 21 | reduction of the cell survival | 6000 ± 400 | 17000 ± 1000 | reduction of the cell survival | 23.5 | 22.5 | block of cell duplication in the G0/G1 phase | did not vary | did not vary |  |  |
| n-Bu3Sn(HtpO2) [Compound 5] |  | 101 ± 11 |  | 117 ± 10 |  | 487 ± 47 | reduction of the cell survival | 12000 ± 1000 | 22000 ± 1000 | reduction of the cell survival | 18.3 | 20.2 | block of cell duplication in the G0/G1 phase | did not vary | did not vary |  |  |
